Measured values as given in US11351236B2, “BCMA chimeric antigen receptors” (2seventy bio, Inc., priority 2014, dated 2022).

Tested on: human multiple myeloma (RPMI-8226) tumors
Assay: Sub-cutaneous human multiple myeloma (RPMI-8226) tumor model in NSG mice
Format: in vivo, mouse
Settings: ~100 mm^3 RPMI-8226 tumors, 10^7 CAR T cells or Bortezomib, two independent experiments
Protocol: Hyperactivation and increased apoptosis could negatively impact CAR T cell persistence in patients and ultimately clinical efficacy. The anti-tumor function of anti-BCMA02 CAR T cells and anti-BCMA10 CAR T cells was examined in a mouse tumor model. NOD scid gamma (NSG) mice with ˜100 mm^3 experimental sub-cutaneous human multiple myeloma (RPMI-8226) tumors were treated with 10^7 anti-BCMA02 CAR T cells, 10^7 anti-BCMA10 CAR T cells, or Bortezomib (velcade). RPMI-8226 growth was monitored with calipers.

For `CC(C)C[C@H](NC(=O)[C@H](Cc1ccccc1)NC(=O)c1cnccn1)B(O)O` [Bortezomib], the “tumor growth (calipers)” value was “controlled tumor growth”.
